From patent US11807649B2, “Fused tetracyclic quinazoline derivatives as inhibitors of ErbB2” (EnLiven Therapeutics, Inc., priority 2021, dated 2023)

Test system: Ba/F3 ERBB2 YVMA
Assay: Cell viability assay (CellTiter Glo), Ba/F3 cells engineered to express ERBB2 YVMA
Format: cell-based
Settings: Mus musculus, BaF3, 72 h, Ba/F3 cells expressing human ERBB2 YVMA mutant; 72 hours; cell viability, CellTiter Glo; read-out: Ba/F3 ERBB2 YVMA, IC50
Method: Cells were treated with compounds, and cell viability was measured as a metric of kinase inhibition.
BT-474, A431, MDA-MB-175VII, NCI-H1781, MCF7, and Ba/F3 cell lines were tested. The Ba/F3 cell line is IL-3-dependent mouse cell line derived from the C3H mouse strain. Ba/F3 cell lines were engineered to express human ERBB2 or EGFR kinases, rendering the cells IL-3 independent. The lines were generated via retroviral transduction utilizing a Moloney murine leukemia virus (MMLV) promoter, and constructs are stably integrated into the cell genome. The sequences of the ERBB2 and EGFR genes used were NCBI Reference Sequences NM 004448.3 and NM 005228.3, respectively.
BT-474, A431, MDA-MB-175VII, NCI-H1781 and MCF7 cells were grown in the appropriate growth medium as described in Table B2 below, and harvested at 50-80% confluence. BT-474, A431, MDA-MB-175VII, NCI-H1781 and MCF7 cells were counted and seeded at 2,000 or 1,500 cells per well in 384-well tissue culture plates (see Table B2). Similarly, Ba/F3 cell lines engineered to express EGFR, ERBB2, or ERBB2 mutants were grown, harvested, counted and seeded at 3000 cells per well in 96-well plates. A subset of wells contained media only (low control, “LC”).
Table B1 provides the growth media and number of cells seeded per well for the each cell line.
Compounds were dissolved in DMSO and serially diluted. Serially-diluted compound or a DMSO only control (high control, “HC”) was added to the plated cells in each well. Compounds were tested at concentrations of about 10 μM to 0.51 nM, using three-fold dilutions. The final proportion of DMSO never exceeded 0.1%.
Plates were placed in a 37° C., 5% CO2 incubator for 72 hours. Plates were then removed from the incubator and equilibrated for 15 minutes at room temperature. […] of CellTiter Glo reagent (Promega) was added to measure the relative level of metabolically active cells by quantifying intracellular ATP concentrations. Plates were incubated for 30 minutes at room temperature, and luminescence was measured. Percent viability was normalized to a vehicle control only using the following formula: % viability=100×(Lumsample−LumLC)/(LumHC−LumLC). Graphical curves were fitted using a nonlinear regression model with a sigmoidal dose response.

Row | Structure (SMILES) | IC50
1 | Cc1cc(Nc2ncnc3cc4c(nc23)N2CCN(C(=O)/C=C/CN(C)C)[C@H](CO4)C2)ccc1Oc1ccc2c(c1)ncn2C [Compound 6, (E)-4-(dimethylamino)-1-((10S)-4-((3-methyl-4-((1-methyl-1H-benzo[d]imidazol-5-yl)oxy)phenyl)amino)-7,8,10,11-tetrahydro-9H-6,10-methanopyrimido[4′,5′: 5,6]pyrido[3,2-b][1,4,7]oxadiazonin-9-yl)but-2-en-1-one] | 15.8 nM
2 | Cc1cc(Nc2ncnc3cc4c(cc23)N2CCN(C(=O)/C=C/CN(C)C)[C@H](CO4)C2)ccc1Oc1ccc2c(c1)ncn2C [Compound 7, (E)-4-(dimethylamino)-1-((10S)-4-((3-methyl-4-((1-methyl-1H-benzo[d]imidazol-5-yl)oxy)phenyl)amino)-7,8,10,11-tetrahydro-9H-6,10-methano[1,4,7]oxadiazonino[3,2-g]quinazolin-9-yl)but-2-en-1-one] | 78.7 nM
3 | Cc1cc(Nc2ncnc3cc4c(cc23)N2CCN(C(=O)/C=C/CN(C)C)[C@@H](CO4)C2)ccc1Oc1ccn2ncnc2c1 [Compound 8, (E)-1-((10R)-4-((4-([1,2,4]triazolo[1,5-a]pyridin-7-yloxy)-3-methylphenyl)amino)-7,8,10,11-tetrahydro-9H-6,10-methano[1,4,7]oxadiazonino[3,2-g]quinazolin-9-yl)-4-(dimethylamino)but-2-en-1-one] | > 500 nM
4 | Cc1cc(Nc2ncnc3cc4c(nc23)N2CCN(C(=O)/C=C/CN(C)C)[C@H](CO4)C2)ccc1Oc1ccn2ncnc2c1 [Compound 10, (E)-1-((10S)-4-((4-([1,2,4]triazolo[1,5-a]pyridin-7-yloxy)-3-methylphenyl)amino)-7,8,10,11-tetrahydro-9H-6,10-methanopyrimido[4′,5′:5,6]pyrido[3,2-b][1,4,7]oxadiazonin-9-yl)-4-(dimethylamino)but-2-en-1-one] | 7.02 nM
5 | CC#CC(=O)N1CCN2C[C@@H]1COc1cc3ncnc(Nc4ccc(Oc5ccn6ncnc6c5)c(C)c4)c3cc12 [Compound 17, 1-((10R)-4-((4-([1,2,4]triazolo[1,5-a]pyridin-7-yloxy)-3-methylphenyl)amino)-7,8,10,11-tetrahydro-9H-6,10-methano[1,4,7]oxadiazonino[3,2-g]quinazolin-9-yl)but-2-yn-1-one] | > 500 nM
6 | C=C(F)C(=O)N1CCN2C[C@H]1COc1cc3ncnc(Nc4ccc(Oc5ccn6ncnc6c5)c(C)c4)c3nc12 [Compound 23, 1-((10S)-4-((4-([1,2,4]triazolo[1,5-a]pyridin-7-yloxy)-3-methylphenyl)amino)-7,8,10,11-tetrahydro-9H-6,10-methanopyrimido[4′,5′:5,6]pyrido[3,2-b][1,4,7]oxadiazonin-9-yl)-2-fluoroprop-2-en-1-one] | 222 nM
7 | Cc1cc(Nc2ncnc3cc4c(nc23)N2CCN(C(=O)/C=C/CN(C)C)[C@H](CO4)C2)ccc1Oc1cccnc1 [Compound 25, (E)-4-(dimethylamino)-1-((10S)-4-((3-methyl-4-(pyridin-3-yloxy)phenyl)amino)-7,8,10,11-tetrahydro-9H-6,10-methanopyrimido[4′,5′:5,6]pyrido[3,2-b][1,4,7]oxadiazonin-9-yl)but-2-en-1-one] | 2.02 nM
8 | CN(C)C/C=C/C(=O)N1CCN2C[C@H]1COc1cc3ncnc(Nc4ccc(Oc5ccn6ncnc6c5)cc4)c3nc12 [Compound 31, (E)-1-((10S)-4-((4-([1,2,4]triazolo[1,5-a]pyridin-7-yloxy)phenyl)amino)-7,8,10,11-tetrahydro-9H-6,10-methanopyrimido[4′,5′:5,6]pyrido[3,2-b][1,4,7]oxadiazonin-9-yl)-4-(dimethylamino)but-2-en-1-one] | 19.9 nM

More lines, in order of falling IC50, values ahead:

Row | IC50 | Structure (SMILES)
9 | 85.9 nM | Cc1cc(Nc2ncnc3cc4c(cc23)N2CCN(C(=O)/C=C/CN(C)C)[C@H](CO4)C2)ccc1Oc1ccn2ncnc2c1 [Compound 9, (E)-1-((10S)-4-((4-([1,2,4]triazolo[1,5-a]pyridin-7-yloxy)-3-methylphenyl)amino)-7,8,10,11-tetrahydro-9H-6,10-methano[1,4,7]oxadiazonino[3,2-g]quinazolin-9-yl)-4-(dimethylamino)but-2-en-1-one]
10 | 82.3 nM | Cc1cc(Nc2ncnc3cc4c(nc23)N2CCN(C(=O)/C=C/CN(C)C)[C@@H](CO4)C2)ccc1Oc1ccn2ncnc2c1 [Compound 15, (E)-1-((10R)-4-((4-([1,2,4]triazolo[1,5-a]pyridin-7-yloxy)-3-methylphenyl)amino)-7,8,10,11-tetrahydro-9H-6,10-methanopyrimido[4′,5′:5,6]pyrido[3,2-b][1,4,7]oxadiazonin-9-yl)-4-(dimethylamino)but-2-en-1-one]
11 | 44 nM | CC#CC(=O)N1CCN2C[C@H]1COc1cc3ncnc(Nc4ccc(Oc5ccn6ncnc6c5)c(C)c4)c3cc12 [Compound 12, 1-((10S)-4-((4-([1,2,4]triazolo[1,5-a]pyridin-7-yloxy)-3-methylphenyl)amino)-7,8,10,11-tetrahydro-9H-6,10-methano[1,4,7]oxadiazonino[3,2-g]quinazolin-9-yl)but-2-yn-1-one]
12 | 37.7 nM | CC#CC(=O)N1CCN2C[C@H]1COc1cc3ncnc(Nc4ccc(Oc5ccc6c(c5)ncn6C)c(C)c4)c3cc12 [Compound 11]
13 | 21.6 nM | CC#CC(=O)N1CCN2C[C@H]1COc1cc3ncnc(Nc4ccc(Oc5ccn6ncnc6c5)c(C)c4)c3nc12 [Compound 18, 1-((10S)-4-((4-([1,2,4]triazolo[1,5-a]pyridin-7-yloxy)-3-methylphenyl)amino)-7,8,10,11-tetrahydro-9H-6,10-methanopyrimido[4′,5′:5,6]pyrido[3,2-b][1,4,7]oxadiazonin-9-yl)but-2-yn-1-one]
14 | 19.6 nM | Cc1cc(Nc2ncnc3cc4c(nc23)N2CCN(C(=O)/C=C/[C@@H](C)N(C)C)[C@H](CO4)C2)ccc1Oc1ccn2ncnc2c1 [Compound 29, (4R,E)-1-((10S)-4-((4-([1,2,4]triazolo[1,5-a]pyridin-7-yloxy)-3-methylphenyl)amino)-7,8,10,11-tetrahydro-9H-6,10-methanopyrimido[4′,5′:5,6]pyrido[3,2-b][1,4,7]oxadiazonin-9-yl)-4-(dimethylamino)pent-2-en-1-one]
15 | 14 nM | CC#CC(=O)N1CCN2C[C@H]1COc1cc3ncnc(Nc4ccc(Oc5ccc6c(c5)ncn6C)c(C)c4)c3nc12 [Compound 16, 1-((10S)-4-((3-methyl-4-((1-methyl-1H-benzo[d]imidazol-5-yl)oxy)phenyl)amino)-7,8,10,11-tetrahydro-9H-6,10-methanopyrimido[4′,5′:5,6]pyrido[3,2-b][1,4,7]oxadiazonin-9-yl)but-2-yn-1-one]
16 | 10.6 nM | Cc1cc(Nc2ncnc3cc4c(nc23)N2CCN(C(=O)/C=C/[C@H]3CCCN3C)[C@H](CO4)C2)ccc1Oc1ccn2ncnc2c1 [Compound 27, (E)-1-((10S)-4-((4-([1,2,4]triazolo[1,5-a]pyridin-7-yloxy)-3-methylphenyl)amino)-7,8,10,11-tetrahydro-9H-6,10-methanopyrimido[4′,5′:5,6]pyrido[3,2-b][1,4,7]oxadiazonin-9-yl)-3-((R)-1-methylpyrrolidin-2-yl)prop-2-en-1-one]
17 | 6.84 nM | Cc1cc(Nc2ncnc3cc4c(nc23)N2CCN(C(=O)/C=C/[C@@H]3CCCN3C)[C@H](CO4)C2)ccc1Oc1ccn2ncnc2c1 [Compound 28, (E)-1-((10S)-4-((4-([1,2,4]triazolo[1,5-a]pyridin-7-yloxy)-3-methylphenyl)amino)-7,8,10,11-tetrahydro-9H-6,10-methanopyrimido[4′,5′:5,6]pyrido[3,2-b][1,4,7]oxadiazonin-9-yl)-3-((S)-1-methylpyrrolidin-2-yl)prop-2-en-1-one]
18 | 6.4 nM | Cc1cc(Nc2ncnc3cc4c(nc23)N2CCN(C(=O)/C=C/CN(C)C)[C@H](CO4)C2)c(F)cc1Oc1ccn2ncnc2c1 [Compound 24, (E)-1-((10S)-4-((4-([1,2,4]triazolo[1,5-a]pyridin-7-yloxy)-2-fluoro-5-methylphenyl)amino)-7,8,10,11-tetrahydro-9H-6,10-methanopyrimido[4′,5′:5,6]pyrido[3,2-b][1,4,7]oxadiazonin-9-yl)-4-(dimethylamino)but-2-en-1-one]
19 | 5.23 nM | Cc1ccc(Oc2ccc(Nc3ncnc4cc5c(nc34)N3CCN(C(=O)/C=C/CN(C)C)[C@H](CO5)C3)cc2C)cn1 [Compound 21, (E)-4-(dimethylamino)-1-((10S)-4-((3-methyl-4-((6-methylpyridin-3-yl)oxy)phenyl)amino)-7,8,10,11-tetrahydro-9H-6,10-methanopyrimido[4′,5′:5,6]pyrido[3,2-b][1,4,7]oxadiazonin-9-yl)but-2-en-1-one]
